pKi: −log10 of the molar value. Where “and” joins values, the source holds several entries; their conditions need not be identical. Equal entries are not always repeated.

From BindingDB's records for PubMed 6248635 (Stanford University, 1980) come the findings set out here.

In assay [1] the target is Beta-arrestin-1 (Oryctolagus cuniculus, UniProt Q95223).
Assay [2] has as its target Delta-type opioid receptor (Mus musculus, UniProt P32300).
For assay [3], the target named is Opioid receptor delta 1 (Bos taurus, UniProt F1N083).
Opioid receptor delta 1, sequence (F1N083 whole entry): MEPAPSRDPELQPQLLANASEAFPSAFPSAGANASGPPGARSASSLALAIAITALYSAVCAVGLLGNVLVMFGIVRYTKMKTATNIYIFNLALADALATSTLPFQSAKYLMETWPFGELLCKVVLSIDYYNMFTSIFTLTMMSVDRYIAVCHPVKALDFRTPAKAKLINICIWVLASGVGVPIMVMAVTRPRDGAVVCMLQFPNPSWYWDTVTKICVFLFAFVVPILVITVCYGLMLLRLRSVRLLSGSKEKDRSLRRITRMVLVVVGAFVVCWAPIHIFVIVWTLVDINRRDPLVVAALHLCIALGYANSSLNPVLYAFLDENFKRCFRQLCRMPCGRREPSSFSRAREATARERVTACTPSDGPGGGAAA

Beta-arrestin-1, sequence (Q95223 whole entry): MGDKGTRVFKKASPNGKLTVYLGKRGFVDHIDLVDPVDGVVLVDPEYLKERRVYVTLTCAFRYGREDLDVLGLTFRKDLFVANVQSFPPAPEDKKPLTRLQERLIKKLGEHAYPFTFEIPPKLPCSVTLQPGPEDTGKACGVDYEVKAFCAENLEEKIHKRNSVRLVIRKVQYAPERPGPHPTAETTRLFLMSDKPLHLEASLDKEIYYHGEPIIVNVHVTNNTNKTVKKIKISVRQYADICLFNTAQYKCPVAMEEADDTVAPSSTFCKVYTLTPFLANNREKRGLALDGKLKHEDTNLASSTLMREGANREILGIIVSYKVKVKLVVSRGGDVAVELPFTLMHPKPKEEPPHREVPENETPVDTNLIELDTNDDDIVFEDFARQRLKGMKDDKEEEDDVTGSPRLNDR
Delta-type opioid receptor, sequence (P32300 whole entry): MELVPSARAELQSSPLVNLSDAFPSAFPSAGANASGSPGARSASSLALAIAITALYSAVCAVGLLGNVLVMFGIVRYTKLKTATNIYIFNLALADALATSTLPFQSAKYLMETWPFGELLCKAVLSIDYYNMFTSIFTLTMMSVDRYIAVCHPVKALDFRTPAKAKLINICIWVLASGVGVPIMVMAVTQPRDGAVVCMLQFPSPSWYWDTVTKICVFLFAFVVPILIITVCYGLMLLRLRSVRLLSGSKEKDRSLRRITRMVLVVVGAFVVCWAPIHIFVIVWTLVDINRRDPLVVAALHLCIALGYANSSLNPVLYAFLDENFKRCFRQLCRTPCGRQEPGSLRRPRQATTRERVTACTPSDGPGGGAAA

Broadly, the pKi is the negative decadic logarithm of the Ki, by convention in mol/L. Turning to `C=CCN1CC[C@]23c4c5ccc(O)c4O[C@H]2C(=O)CC[C@@]3(O)[C@H]1C5` [[17-(2,3-3H-2-propenyl)]-4,5a-epoxy-3,14-dihydroxymorphinan-6-one], the pKi in assay [1] was 7.17.
Regarding `CN1CC[C@]23c4c5ccc(O)c4O[C@H]2[C@@H](O)CCC3[C@H]1C5` (stereo partly drawn) [DIHYDROMORPHINE], the negative logarithm of the Ki (pKi) in assay [2] was 6.90; in assay [3] it was 7.42 and 7.45.
With `CC(C)C[C@@H](NC(=O)[C@H](Cc1ccccc1)NC(=O)CNC(=O)[C@@H](C)NC(=O)[C@@H](N)Cc1ccc(O)cc1)C(=O)O` [[D-Ala2-D-Leu5]enkephalin], in assay [3], the pKi is 8.74 and 8.01.
For “H-YGGFMTSEKSQTPLVTLFKNAIVKNAHKKGQ-OH [Beta-Endorphin]”, the pKi in assay [1] is 7.68; in assay [3] it was 7.85 and 7.24.
Take `CC(C)C[C@H](NC(=O)[C@H](Cc1ccccc1)NC(=O)CNC(=O)[C@@H](C)NC(=O)[C@@H](N)Cc1ccc(O)cc1)C(=O)O` [DALLE]: the pKi in assay [1] was 8.44; in assay [3] it was 8.74 and 8.13.
